Calls of active or inactive are those of the source.
Experiments:
[1] = molecular target: T1, Voltage-gated N-type calcium channel alpha-1B subunit/Amyloid beta A4 precursor protein-binding family A member 1 (Homo sapiens, UniProt Q00975+Q02410); format: protein assay
[2] = molecular target: T1, Voltage-gated N-type calcium channel alpha-1B subunit/Amyloid beta A4 precursor protein-binding family A member 1; format: protein assay; remark: listed apart in the source
CHO-K1 = test: (§1) Counterscreen for antagonists of the orexin 1 receptor (OX1R; HCRTR1): Homogeneous time resolved fluorescence (HTRF)-based cell-based dose response assay to identify antagonists of the parental CHO-K1 cell line. [Related pubchem assays (depositor defined):AID434989, AID435008, AID463079, AID485270, AID492963, AID492964, AID492965, AID493232, AID504699, AID504701]; format: functional; conditions: Cricetulus griseus
Trypsin = Trypsin (Sus scrofa, UniProt P00761); test: porcine trypsin inhibitors, dose response, selectivity assay for Rce1 protease inhibitor project, biochemical, quenched peptide fluorescence, cherry-pick (AID 488789)
[3] = as §1, with “Fluorescence-based” for “Homogeneous time resolved fluorescence (HTRF)-based”, “cell-based high throughput” for “cell-based”, “CHO” for “CHO-K1”; format: functional
[4] = molecular target: T2, Orexin/Hypocretin receptor type 1 (Homo sapiens, UniProt O43613); test: Homogeneous Time Resolved Fluorescence (HTRF)-based cell-based high throughput dose response assay for antagonists of the orexin 1 receptor (OX1R; HCRTR1). [Related pubchem assays (depositor defined):AID434989, AID435008, AID463079, AID485270, AID492963, AID492964, AID492965, AID493232, AID504717, AID504718]; format: functional
T2 sequence (O43613 whole entry): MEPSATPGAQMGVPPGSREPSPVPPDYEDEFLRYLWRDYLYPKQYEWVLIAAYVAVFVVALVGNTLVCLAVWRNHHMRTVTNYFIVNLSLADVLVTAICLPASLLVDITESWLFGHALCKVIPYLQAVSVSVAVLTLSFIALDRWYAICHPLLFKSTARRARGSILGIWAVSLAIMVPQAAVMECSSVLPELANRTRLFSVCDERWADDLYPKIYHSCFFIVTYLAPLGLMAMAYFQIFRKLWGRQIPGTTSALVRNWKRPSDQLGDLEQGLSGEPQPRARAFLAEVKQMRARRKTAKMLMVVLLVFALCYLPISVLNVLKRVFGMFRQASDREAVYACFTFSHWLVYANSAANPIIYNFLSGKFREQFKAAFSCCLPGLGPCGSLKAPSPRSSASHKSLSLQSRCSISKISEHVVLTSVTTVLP

[5] = molecular target: T2, Orexin/Hypocretin receptor type 1; test: Fluorescence-based cell-based high throughput dose response assay for antagonists of the orexin 1 receptor (OX1R; HCRTR1). [Related pubchem assays (depositor defined):AID434989, AID435008, AID463079, AID485270, AID492963, AID492964, AID492965, AID493232, AID504717, AID504718]; format: functional
Orexin receptor type 2 [6] = molecular target: T3, Orexin receptor type 2 (Homo sapiens, UniProt O43614); test: Counterscreen assay for antagonists of the orexin 1 receptor (OX1R; HCRTR1): Fluorescence-based cell-based dose response assay for antagonists of the orexin 2 receptor (OX2R; HCRTR2), run by assay provider.; format: functional
T3 sequence (O43614 whole entry): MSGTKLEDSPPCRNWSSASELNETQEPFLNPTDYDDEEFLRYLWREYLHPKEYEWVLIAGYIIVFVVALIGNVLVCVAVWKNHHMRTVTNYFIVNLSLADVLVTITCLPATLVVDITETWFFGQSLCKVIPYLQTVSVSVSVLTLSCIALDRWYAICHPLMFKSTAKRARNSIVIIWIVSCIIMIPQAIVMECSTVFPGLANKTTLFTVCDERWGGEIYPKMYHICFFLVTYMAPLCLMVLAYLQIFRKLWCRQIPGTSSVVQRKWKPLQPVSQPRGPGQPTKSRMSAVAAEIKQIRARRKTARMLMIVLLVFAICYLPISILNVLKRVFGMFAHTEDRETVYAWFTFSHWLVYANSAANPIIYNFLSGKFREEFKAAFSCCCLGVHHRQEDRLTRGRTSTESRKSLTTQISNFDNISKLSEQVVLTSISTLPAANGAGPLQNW

Orexin receptor type 2 [7] = molecular target: T3, Orexin receptor type 2; test: Counterscreen assay for antagonists of the orexin 1 receptor (OX1R; HCRTR1): Homogeneous Time Resolved Fluorescence (HTRF)-based cell-based dose response assay for antagonists of the orexin 2 receptor (OX2R; HCRTR2), run by assay provider.; format: functional
[8] = molecular target: T4, High affinity choline transporter 1 (Homo sapiens, UniProt Q9GZV3); test: CHT inhibitors, dose response, cell-based, 5-point CRC, membrane potential dye (AID 504840); format: functional
T4 sequence (Q9GZV3 whole entry): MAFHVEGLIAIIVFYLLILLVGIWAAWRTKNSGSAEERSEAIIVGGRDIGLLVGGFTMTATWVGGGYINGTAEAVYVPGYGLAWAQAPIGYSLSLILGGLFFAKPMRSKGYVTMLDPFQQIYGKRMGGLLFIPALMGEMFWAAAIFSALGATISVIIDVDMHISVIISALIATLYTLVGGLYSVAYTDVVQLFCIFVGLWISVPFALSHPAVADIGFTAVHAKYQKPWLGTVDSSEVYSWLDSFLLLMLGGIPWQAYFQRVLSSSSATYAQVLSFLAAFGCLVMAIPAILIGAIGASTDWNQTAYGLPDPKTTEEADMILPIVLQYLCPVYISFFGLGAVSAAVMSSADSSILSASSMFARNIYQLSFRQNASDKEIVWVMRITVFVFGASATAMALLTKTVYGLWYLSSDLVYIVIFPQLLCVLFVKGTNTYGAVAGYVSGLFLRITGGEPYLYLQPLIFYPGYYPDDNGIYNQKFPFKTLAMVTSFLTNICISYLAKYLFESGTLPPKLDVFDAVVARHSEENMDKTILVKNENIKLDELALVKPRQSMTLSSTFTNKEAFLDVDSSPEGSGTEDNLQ

[9] = molecular target: T4, High affinity choline transporter 1; test: CHT inhibitors, dose response, cell-based, 10-point CRC, membrane potential dye (AID 588401); format: functional;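 further: membrane potential dye fluorescence of choline-evoked depolarization via CHT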
[10] = molecular target: T5, Polyadenylate-binding protein 1 (Homo sapiens, UniProt P11940); test: PABP1 MLLE–PAM2 interaction inhibitors, dose response, miRNA deadenylation inhibitor project, biochemical, fluorescence polarization, Cy5-PAM2 peptide, secondary (AID 602260); format: functional; conditions: read-out: IC50_Mean
[11] = molecular target: Mitochondrial peptide methionine sulfoxide reductase (Bos taurus, UniProt P54149); test: Absorbance-based biochemical high throughput dose response assay for activators of Methionine sulfoxide reductase A (MsrA).; format: functional
[12] = molecular target: T5, Polyadenylate-binding protein 1; test: PABP1 MLLE–PAM2 binding inhibitor potency, dose response, biochemical, fluorescence polarization, FITC-PAM2 peptide (AID 602259); format: functional; conditions: read-out: IC50_Mean
Nonstructural protein 1 = Nonstructural protein 1 (Influenza A virus, UniProt Q194T2); format: functional, Influenza A virus (A/California/07/2009(H1N1))
[13] = AlphaScreen signal interference compounds, dose response, artefact control for ARNT-TACC3 interaction inhibitor project, biochemical, luminescence, cherry-pick (AID 651705); format: functional;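 further: AlphaScreen bead proximity signal that flags compounds interfering with the detection technology; potency reflects signal decrease which marks the compound as an assay artifact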
[14] = molecular target: Potassium voltage-gated channel subfamily KQT member 2 (Rattus norvegicus, UniProt O88943); test: KCNQ2 potassium channel inhibitors, dose response, cell-based, automated electrophysiology, set II, rat KCNQ2 (AID 588637); format: functional
Melanocortin receptor 4 = Melanocortin receptor 4 (Homo sapiens, UniProt P32245); format: functional, cell-based;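 further: Cell-based assay with luminescence read-out, confirmatory dose-response testing for agonist activity of biased ligands at MC4R; human U2OS cells with tagged receptor and beta-arrestin; potency of agonists that increase receptor coupling to beta-arrestin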
[15] = molecular target: Melanin-concentrating hormone receptor 1 (Homo sapiens, UniProt Q99705); test: Late-stage fluorescence-based counterscreen for antagonists of the G-protein coupled receptor 7 (GPR7): cell-based dose response assay to identify antagonists of the melanin-concentrating hormone receptor 1 (MCHR1) Set 6.; format: functional
[16] = molecular target: T6, Neuropeptides B/W receptor type 1 (Homo sapiens, UniProt P48145); test: GPR7 antagonist potency, late-stage follow-up, cell-based, fluorescence, dose response, set 6 (AID 588583); format: functional
T6 sequence (P48145 whole entry): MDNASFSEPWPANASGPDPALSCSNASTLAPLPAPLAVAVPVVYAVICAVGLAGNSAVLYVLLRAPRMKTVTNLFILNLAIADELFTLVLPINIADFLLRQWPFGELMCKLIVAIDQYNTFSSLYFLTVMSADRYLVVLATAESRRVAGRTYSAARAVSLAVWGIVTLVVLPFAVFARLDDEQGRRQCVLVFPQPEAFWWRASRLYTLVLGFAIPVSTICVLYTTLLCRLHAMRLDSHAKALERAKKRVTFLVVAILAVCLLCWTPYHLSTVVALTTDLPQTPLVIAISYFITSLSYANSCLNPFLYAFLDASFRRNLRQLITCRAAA

[17] = HEp-2 cell cytotoxicity, dose response, cytotoxicity control for RSV inhibitor project, HTS (AID 2410); format: functional; conditions: human respiratory syncytial virus
[18] = molecular target: Heat shock protein HSP 90-alpha (Homo sapiens, UniProt P07900); format: functional, organism-based
[19] = molecular target: Aryl hydrocarbon receptor (Homo sapiens, UniProt P35869); conditions: Potency;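 further: confirmatory quantitative high-throughput screen measuring activation of the AhR signaling pathway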

T5 sequence (P11940 whole entry): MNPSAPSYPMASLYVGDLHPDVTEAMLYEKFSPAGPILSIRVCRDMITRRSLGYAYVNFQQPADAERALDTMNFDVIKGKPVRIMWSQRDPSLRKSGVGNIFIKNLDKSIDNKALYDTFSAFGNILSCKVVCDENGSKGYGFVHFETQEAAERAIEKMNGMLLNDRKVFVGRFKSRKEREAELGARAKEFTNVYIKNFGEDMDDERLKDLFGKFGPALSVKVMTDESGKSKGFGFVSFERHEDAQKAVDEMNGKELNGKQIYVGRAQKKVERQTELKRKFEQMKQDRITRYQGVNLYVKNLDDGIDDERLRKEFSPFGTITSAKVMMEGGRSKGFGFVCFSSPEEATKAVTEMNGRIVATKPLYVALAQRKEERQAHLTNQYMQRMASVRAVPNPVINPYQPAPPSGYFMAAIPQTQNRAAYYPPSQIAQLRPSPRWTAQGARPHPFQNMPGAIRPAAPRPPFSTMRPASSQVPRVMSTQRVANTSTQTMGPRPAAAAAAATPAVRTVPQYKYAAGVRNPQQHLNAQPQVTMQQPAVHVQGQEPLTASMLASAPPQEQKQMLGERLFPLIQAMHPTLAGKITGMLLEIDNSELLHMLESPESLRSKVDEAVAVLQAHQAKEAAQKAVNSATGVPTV
Melanin-concentrating hormone receptor 1, sequence (Q99705 whole entry): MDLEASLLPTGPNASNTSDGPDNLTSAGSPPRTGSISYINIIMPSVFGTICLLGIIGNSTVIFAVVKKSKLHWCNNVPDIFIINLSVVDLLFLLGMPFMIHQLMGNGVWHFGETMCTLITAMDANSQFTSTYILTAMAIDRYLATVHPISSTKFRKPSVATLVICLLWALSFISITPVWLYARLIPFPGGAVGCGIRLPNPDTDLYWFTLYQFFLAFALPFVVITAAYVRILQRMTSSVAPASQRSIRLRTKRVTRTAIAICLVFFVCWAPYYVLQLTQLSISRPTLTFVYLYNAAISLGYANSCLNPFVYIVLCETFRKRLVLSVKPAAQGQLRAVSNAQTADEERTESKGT
T1 sequence (Q00975 whole entry): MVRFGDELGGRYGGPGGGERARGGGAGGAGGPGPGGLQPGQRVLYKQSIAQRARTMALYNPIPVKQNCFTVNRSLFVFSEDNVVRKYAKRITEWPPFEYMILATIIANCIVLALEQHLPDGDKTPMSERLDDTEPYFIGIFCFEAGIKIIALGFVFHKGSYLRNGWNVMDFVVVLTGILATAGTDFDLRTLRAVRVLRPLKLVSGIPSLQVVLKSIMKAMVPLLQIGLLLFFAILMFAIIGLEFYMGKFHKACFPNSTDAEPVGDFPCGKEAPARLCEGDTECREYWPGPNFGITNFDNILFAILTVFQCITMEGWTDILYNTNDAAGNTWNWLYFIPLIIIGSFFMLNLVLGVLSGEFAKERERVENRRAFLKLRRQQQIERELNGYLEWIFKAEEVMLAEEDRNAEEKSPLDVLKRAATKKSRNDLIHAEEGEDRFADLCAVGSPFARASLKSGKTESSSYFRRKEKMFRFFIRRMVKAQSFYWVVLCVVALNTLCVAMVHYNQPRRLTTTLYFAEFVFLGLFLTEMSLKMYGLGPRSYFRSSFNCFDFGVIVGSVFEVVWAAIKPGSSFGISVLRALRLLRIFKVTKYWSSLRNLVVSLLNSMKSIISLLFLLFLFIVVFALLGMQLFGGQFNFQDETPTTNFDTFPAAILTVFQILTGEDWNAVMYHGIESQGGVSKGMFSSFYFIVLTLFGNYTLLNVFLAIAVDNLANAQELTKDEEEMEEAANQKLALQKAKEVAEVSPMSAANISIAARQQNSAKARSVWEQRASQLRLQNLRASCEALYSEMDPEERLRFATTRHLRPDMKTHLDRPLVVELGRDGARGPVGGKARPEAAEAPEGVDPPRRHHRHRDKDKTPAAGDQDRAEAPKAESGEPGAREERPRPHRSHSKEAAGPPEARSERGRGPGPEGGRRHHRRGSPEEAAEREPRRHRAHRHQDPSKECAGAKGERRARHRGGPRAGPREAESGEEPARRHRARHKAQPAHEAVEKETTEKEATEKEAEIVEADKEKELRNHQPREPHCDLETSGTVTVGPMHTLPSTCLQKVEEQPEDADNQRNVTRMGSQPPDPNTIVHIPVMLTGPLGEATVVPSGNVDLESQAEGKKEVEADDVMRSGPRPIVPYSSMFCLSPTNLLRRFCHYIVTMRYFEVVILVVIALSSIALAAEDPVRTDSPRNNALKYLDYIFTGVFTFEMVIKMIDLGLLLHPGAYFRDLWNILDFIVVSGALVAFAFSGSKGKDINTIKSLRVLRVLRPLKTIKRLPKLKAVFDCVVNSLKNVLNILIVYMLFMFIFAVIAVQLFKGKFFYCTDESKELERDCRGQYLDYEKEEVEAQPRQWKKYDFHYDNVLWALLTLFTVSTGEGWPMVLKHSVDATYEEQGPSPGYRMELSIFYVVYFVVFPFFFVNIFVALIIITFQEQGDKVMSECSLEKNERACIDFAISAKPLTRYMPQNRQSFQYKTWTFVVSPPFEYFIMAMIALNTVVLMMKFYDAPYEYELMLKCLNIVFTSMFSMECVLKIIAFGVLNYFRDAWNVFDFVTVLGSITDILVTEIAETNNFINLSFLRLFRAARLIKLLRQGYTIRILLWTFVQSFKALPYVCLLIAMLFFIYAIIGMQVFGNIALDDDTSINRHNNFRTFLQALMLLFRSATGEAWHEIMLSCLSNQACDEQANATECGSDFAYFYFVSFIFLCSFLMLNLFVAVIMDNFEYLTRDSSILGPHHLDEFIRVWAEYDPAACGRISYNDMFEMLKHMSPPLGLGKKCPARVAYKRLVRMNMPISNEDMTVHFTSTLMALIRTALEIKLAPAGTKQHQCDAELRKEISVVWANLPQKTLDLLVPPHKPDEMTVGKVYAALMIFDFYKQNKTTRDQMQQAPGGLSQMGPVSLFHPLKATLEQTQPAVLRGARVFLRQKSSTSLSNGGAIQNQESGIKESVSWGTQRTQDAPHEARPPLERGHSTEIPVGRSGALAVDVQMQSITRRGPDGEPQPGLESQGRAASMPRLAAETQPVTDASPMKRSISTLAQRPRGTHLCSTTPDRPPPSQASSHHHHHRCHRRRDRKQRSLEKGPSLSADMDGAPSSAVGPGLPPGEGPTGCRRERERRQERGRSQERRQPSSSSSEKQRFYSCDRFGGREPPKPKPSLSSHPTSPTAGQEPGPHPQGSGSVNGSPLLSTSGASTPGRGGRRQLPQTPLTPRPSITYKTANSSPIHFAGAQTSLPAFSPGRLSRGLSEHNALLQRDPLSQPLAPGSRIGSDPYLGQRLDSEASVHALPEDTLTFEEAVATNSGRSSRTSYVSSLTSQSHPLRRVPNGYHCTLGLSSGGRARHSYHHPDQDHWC
T1 sequence (Q02410 whole entry): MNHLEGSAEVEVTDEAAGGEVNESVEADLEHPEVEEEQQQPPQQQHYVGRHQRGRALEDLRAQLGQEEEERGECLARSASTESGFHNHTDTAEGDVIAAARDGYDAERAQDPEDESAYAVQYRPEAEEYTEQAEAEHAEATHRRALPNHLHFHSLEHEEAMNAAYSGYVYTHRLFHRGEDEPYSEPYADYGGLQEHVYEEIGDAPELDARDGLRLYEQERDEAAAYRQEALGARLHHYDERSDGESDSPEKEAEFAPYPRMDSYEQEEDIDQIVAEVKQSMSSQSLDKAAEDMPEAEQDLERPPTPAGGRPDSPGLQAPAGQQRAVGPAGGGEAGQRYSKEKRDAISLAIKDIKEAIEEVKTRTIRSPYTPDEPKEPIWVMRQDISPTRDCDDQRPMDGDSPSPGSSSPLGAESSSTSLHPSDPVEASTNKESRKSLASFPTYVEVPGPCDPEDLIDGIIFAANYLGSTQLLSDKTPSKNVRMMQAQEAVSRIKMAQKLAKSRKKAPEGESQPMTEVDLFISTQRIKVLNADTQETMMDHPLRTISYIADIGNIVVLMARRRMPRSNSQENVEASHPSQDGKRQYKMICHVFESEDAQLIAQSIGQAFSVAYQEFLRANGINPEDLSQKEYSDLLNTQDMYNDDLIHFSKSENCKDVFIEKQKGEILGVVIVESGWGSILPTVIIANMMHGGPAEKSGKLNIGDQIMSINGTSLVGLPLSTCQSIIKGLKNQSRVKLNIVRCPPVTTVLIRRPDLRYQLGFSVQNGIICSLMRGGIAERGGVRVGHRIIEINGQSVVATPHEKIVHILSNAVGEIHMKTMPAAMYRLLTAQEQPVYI
Potassium voltage-gated channel subfamily KQT member 2, sequence (O88943 whole entry): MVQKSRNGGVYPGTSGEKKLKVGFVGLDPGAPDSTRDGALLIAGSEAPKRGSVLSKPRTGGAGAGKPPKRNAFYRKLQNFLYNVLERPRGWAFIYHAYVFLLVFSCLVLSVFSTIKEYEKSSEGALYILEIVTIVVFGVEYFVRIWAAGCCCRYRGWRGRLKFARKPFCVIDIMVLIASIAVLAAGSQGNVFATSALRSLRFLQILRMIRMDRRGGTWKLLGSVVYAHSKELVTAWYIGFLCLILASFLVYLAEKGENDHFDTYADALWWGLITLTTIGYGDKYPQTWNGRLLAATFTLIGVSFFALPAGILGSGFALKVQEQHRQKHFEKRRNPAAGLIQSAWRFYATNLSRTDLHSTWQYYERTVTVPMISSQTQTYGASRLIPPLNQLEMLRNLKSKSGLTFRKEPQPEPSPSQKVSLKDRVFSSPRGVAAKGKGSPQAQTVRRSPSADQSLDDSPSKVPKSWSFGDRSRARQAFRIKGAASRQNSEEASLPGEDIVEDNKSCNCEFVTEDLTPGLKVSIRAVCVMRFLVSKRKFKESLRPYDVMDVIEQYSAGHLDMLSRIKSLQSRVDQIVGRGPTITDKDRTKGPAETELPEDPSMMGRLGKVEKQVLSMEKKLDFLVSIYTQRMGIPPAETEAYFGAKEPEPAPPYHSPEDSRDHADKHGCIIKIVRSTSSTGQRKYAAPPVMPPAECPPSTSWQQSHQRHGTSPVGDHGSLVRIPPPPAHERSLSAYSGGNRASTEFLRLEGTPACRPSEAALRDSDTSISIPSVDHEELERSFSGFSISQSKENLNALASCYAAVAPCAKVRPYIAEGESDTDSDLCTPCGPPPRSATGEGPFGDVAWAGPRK

## O=C(CN1C(=O)/C(=C\c2cccc(Br)c2)Oc2ccccc21)NCC1CCCO1 (stereo not drawn)
[1]
  IC50: 4.98 µM (active)
[2]
  IC50: > 50 µM (inactive)
CHO-K1
  IC50: > 66.2 µM (inactive)
Trypsin
  AC50: 4.3 µM (active)
[3]
  IC50: > 49.8 µM (inactive)
[4]
  IC50: 314 nM (active)
[5]
  IC50: 1.08 µM (active)
Orexin receptor type 2 [6]
  IC50: > 88.8 µM (inactive)
Orexin receptor type 2 [7]
  IC50: > 50 µM (inactive)

## O=C(CSc1c2c(nc3ccc(Cl)cc13)CCCC2)NCCCN1CCOCC1
[8]
  IC50: 4.29 µM (active)
[9]
  IC50: 4.47 µM (active)

## CC(C)CNc1nc(S)nc(N(C)C)n1
[10]
  IC50: > 66 µM (inactive)
[11]
  EC50: > 104 µM (inactive)
[12]
  IC50: > 66 µM (inactive)

## O=C(COC(=O)c1ccccn1)c1cccc(Br)c1
Nonstructural protein 1
  IC50: 25.6 µM (active)
[13]
  AC50: 91 µM (active)

## COc1ccccc1CC(=O)NC1CCCc2ccccc21 (stereo not drawn)
[14]
  IC50: 9.28 µM (active)

## Cc1cccc(NC(=O)[C@@H]2CCCN2S(=O)(=O)c2ccc(Cl)cc2)c1
CHO-K1
  IC50: > 66.2 µM (inactive)
[3]
  IC50: > 49.7 µM (inactive)
[4]
  IC50: 153 nM (active)
[5]
  IC50: 4.23 µM (active)
Orexin receptor type 2 [6]
  IC50: 1.4 µM (active)
Orexin receptor type 2 [7]
  IC50: 0.37 µM (active)

## O=C(NC(c1ccccc1)c1ccc2ccccc2n1)C1CCN(CCOc2ccc(Cl)cc2Cl)CC1 (stereo not drawn)
Melanocortin receptor 4
  EC50: > 89.2 µM (inactive)

## COc1ccc(Oc2c(CCl)cnn(Cc3cccc4ccccc34)c2=O)cc1
[15]
  IC50: 2.87 µM (active)
[16]
  IC50: 2.87 µM (active)

## Oc1c(Br)cc(Br)cc1/C=N\c1cccnc1
[17]
  CC50: 17.3 µM (active)
[18]
  AC50: 3.09 µM (active)
[8]
  IC50: 4.37 µM (active)
[9]
  IC50: 2.99 µM (active)

## N#CCc1c(Cl)cnn(Cc2cccc3ccccc23)c1=O
[15]
  IC50: 2.69 µM (active)
[16]
  IC50: 2.69 µM (active)

## O=[N+]([O-])Nc1nccn1Cc1ccc(Cl)nc1 [DEHYDROIMIDACLOPRID]
[19]
  AC50: 39.8 µM (inconclusive)

From ChEMBL document CHEMBL1201862, “PubChem BioAssay data set” (2004)
